Reference: patent publication US8288385B2, “6-(3-aza-bicyclo[3.1.0]hex-3-yl)-2-phenyl-pyrimidines” (Actelion Pharmaceuticals Ltd., priority 2009, dated 2012)
pIC50: −log10 of the molar value.

target: T1, human P2Y12 receptor (Homo sapiens, UniProt Q9H244); test: P2Y12 receptor binding assay; details: CHO cells with recombinant expression of the human P2Y12 receptor; tritium-labeled 2-methyl-S-ADP; RT, 2 hours
T1 construct: expressed in transfected cells; host or cells: Chinese Hamster Ovary (CHO) cells
Procedure: P2Y12 Receptor Binding Assay
Chinese Hamster Ovary (CHO) cells with recombinant expression of the human P2Y12 receptor were cultured in 24 well cell-culture plates. Cells were washed three times with binding buffer (50 mM Tris pH 7.4, 100 mM NaCl, 1 mM EDTA, 0.5% BSA). The cells were then incubated with 0.5 ml per well binding buffer containing tritium-labeled 2-methyl-thio-adenosine 5′-diphosphate (2-methyl-S-ADP) (between 100,000 and 300,000 dpm per well) and various concentrations of test compounds. After incubation at RT for 2 hours, cells were washed three times with binding buffer. Then, cells were solubilized by addition of 0.5 ml solubilization buffer (SDS, NaOH, EDTA). The content of each well was then transferred into beta-counter vials and 2.0 ml of Ultima Gold Scintillation liquid was added.

T1 sequence (Q9H244 whole entry): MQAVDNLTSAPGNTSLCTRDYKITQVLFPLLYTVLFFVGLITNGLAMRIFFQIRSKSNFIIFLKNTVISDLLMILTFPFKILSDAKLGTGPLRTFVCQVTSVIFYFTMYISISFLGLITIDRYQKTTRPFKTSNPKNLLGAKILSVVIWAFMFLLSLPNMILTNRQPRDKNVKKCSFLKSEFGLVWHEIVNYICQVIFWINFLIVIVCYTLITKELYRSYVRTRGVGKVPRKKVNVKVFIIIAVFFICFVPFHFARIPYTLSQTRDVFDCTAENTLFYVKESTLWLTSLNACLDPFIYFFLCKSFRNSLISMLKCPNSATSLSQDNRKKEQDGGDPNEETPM

Structure (SMILES)	pIC50
CCCCOC(=O)N1CCN(C(=O)[C@@H](NC(=O)c2cc(N3C[C@@H]4[C@@H](CC(=O)O)[C@@H]4C3)nc(-c3ccccc3)n2)C(C)C)CC1 [Example 24, 4-((S)-2-{[6-((1α,5α,6α)-6-Carboxymethyl-3-aza-bicyclo[3.1.0]hex-3-yl)-2-phenyl-pyrimidine-4-carbonyl]-amino}-3-methyl-butyryl)-piperazine-1-carboxylic acid butyl ester]	7.89
CCCCOC(=O)N1CCN(C(=O)[C@@H](NC(=O)c2cc(N3C[C@@H]4[C@H](CC(=O)O)[C@@H]4C3)nc(-c3ccccc3)n2)C(C)C)CC1 [Example 25, 4-((S)-2-{[6-((1α,5α,6β)-6-Carboxymethyl-3-aza-bicyclo[3.1.0]hex-3-yl)-2-phenyl-pyrimidine-4-carbonyl]-amino}-3-methyl-butyryl)-piperazine-1-carboxylic acid butyl ester]	7.89
CCCCOC(=O)N1CCN(C(=O)[C@@H](NC(=O)c2cc(N3C[C@@H]4[C@H](CCC(=O)O)[C@@H]4C3)nc(-c3ccccc3)n2)C(C)C)CC1 [Example 26, 4-[(S)-2-({6-[(1α,5α,6β)-6-(2-Carboxy-ethyl)-3-aza-bicyclo[3.1.0]hex-3-yl]-2-phenyl-pyrimidine-4-carbonyl}-amino)-3-methyl-butyryl]-piperazine-1-carboxylic acid butyl ester]	7.23
CCCCOC(=O)N1CCN(C(=O)[C@@H](NC(=O)c2cc(N3C[C@@H]4[C@@H](CCC(=O)O)[C@@H]4C3)nc(-c3ccccc3)n2)C(C)C)CC1 [Example 27, 4-[(S)-2-({6-[(1α,5α,6α)-6-(2-Carboxy-ethyl)-3-aza-bicyclo[3.1.0]hex-3-yl]-2-phenyl-pyrimidine-4-carbonyl}-amino)-3-methyl-butyryl]-piperazine-1-carboxylic acid butyl ester]	6.82
CCCCOC(=O)N1CCN(C(=O)[C@@H](NC(=O)c2cc(N3C[C@@H]4[C@H](C3)[C@@H]4C(=O)O)nc(-c3ccc(F)cc3)n2)C(C)C)CC1 [Example 28, (1α,5α,6β)-3-[6-[(S)-1-(4-Butoxycarbonyl-piperazine-1-carbonyl)-2-methyl-propylcarbamoyl]-2-(4-fluoro-phenyl)-pyrimidin-4-yl]-3-aza-bicyclo[3.1.0]hexane-6-carboxylic acid]	8.15
CCCCOC(=O)N1CCN(C(=O)[C@@H](NC(=O)c2cc(N3C[C@@H]4[C@H](C3)[C@@H]4C(=O)O)nc(-c3ccc(C)cc3)n2)C(C)C)CC1 [Example 29, (1α,5α,6β)-3-{6-[(S)-1-(4-Butoxycarbonyl-piperazine-1-carbonyl)-2-methyl-propylcarbamoyl]-2-p-tolyl-pyrimidin-4-yl}-3-aza-bicyclo[3.1.0]hexane-6-carboxylic acid]	7.74
CCCCOC(=O)N1CCN(C(=O)[C@@H](NC(=O)c2cc(N3C[C@@H]4[C@H](C3)[C@@H]4C(=O)O)nc(-c3cccc(C(F)(F)F)c3)n2)C(C)C)CC1 [Example 30, (1α,5α,6β)-3-[6-[(S)-1-(4-Butoxycarbonyl-piperazine-1-carbonyl)-2-methyl-propylcarbamoyl]-2-(3-trifluoromethyl-phenyl)-pyrimidin-4-yl]-3-aza-bicyclo[3.1.0]hexane-6-carboxylic acid]	6.60
CCCCOC(=O)N1CCN(C(=O)C(NC(=O)c2cc(N3CC4C(C3)C4C(=O)O)nc(-c3ccccc3)n2)C(C)C)CC1C [Example 31, (1α,5α,6β)-3-{6-[(S)-1-((R)-4-Butoxycarbonyl-3-methyl-piperazine-1-carbonyl)-2-methyl-propylcarbamoyl]-2-phenyl-pyrimidin-4-yl}-3-aza-bicyclo[3.1.0]hexane-6-carboxylic acid]	7.28
CC(C)[C@H](NC(=O)c1cc(N2C[C@@H]3C(C(=O)O)[C@@H]3C2)nc(-c2ccccc2)n1)C(=O)N1CCN(C(=O)OCc2ccccc2)[C@H](C)C1 (stereo partly drawn) [Example 32, (1α,5α,6β)-3-{6-[(S)-1-((R)-4-Benzyloxycarbonyl-3-methyl-piperazine-1-carbonyl)-2-methyl-propylcarbamoyl]-2-phenyl-pyrimidin-4-yl}-3-aza-bicyclo[3.1.0]hexane-6-carboxylic acid]	6.32
CCCCOC(=O)N1CCN(C(=O)CNC(=O)c2cc(N3C[C@@H]4[C@H](C3)[C@@H]4C(=O)O)nc(-c3ccccc3)n2)CC1 [Example 33, (1α,5α,6β)-3-{6-[2-(4-Butoxycarbonyl-piperazin-1-yl)-2-oxo-ethylcarbamoyl]-2-phenyl-pyrimidin-4-yl}-3-aza-bicyclo[3.1.0]hexane-6-carboxylic acid]	7.17
CCCCOC(=O)N1CCN(C(=O)[C@H](C)NC(=O)c2cc(N3C[C@@H]4[C@H](C3)[C@H]4C(=O)O)nc(-c3ccccc3)n2)CC1 [Example 34, (1α,5α,6α)-3-{6-[(S)-2-(4-Butoxycarbonyl-piperazin-1-yl)-1-methyl-2-oxo-ethylcarbamoyl]-2-phenyl-pyrimidin-4-yl}-3-aza-bicyclo[3.1.0]hexane-6-carboxylic acid]	6.64
CCCCOC(=O)N1CCN(C(=O)[C@H](C)NC(=O)c2cc(N3C[C@@H]4[C@H](C3)[C@@H]4C(=O)O)nc(-c3ccccc3)n2)CC1 [Example 35, (1α,5α,6β)-3-{6-[(S)-2-(4-Butoxycarbonyl-piperazin-1-yl)-1-methyl-2-oxo-ethylcarbamoyl]-2-phenyl-pyrimidin-4-yl}-3-aza-bicyclo[3.1.0]hexane-6-carboxylic acid]	7.29
CCCCOC(=O)N1CCN(C(=O)[C@H](CC)NC(=O)c2cc(N3C[C@@H]4[C@H](C3)[C@@H]4C(=O)O)nc(-c3ccccc3)n2)CC1 [Example 36, (1α,5α,6β)-3-{6-[(S)-1-(4-Butoxycarbonyl-piperazine-1-carbonyl)-propylcarbamoyl]-2-phenyl-pyrimidin-4-yl}-3-aza-bicyclo[3.1.0]hexane-6-carboxylic acid]	7.02
CCCCOC(=O)N1CCN(C(=O)[C@H](CCC)NC(=O)c2cc(N3C[C@@H]4[C@H](C3)[C@@H]4C(=O)O)nc(-c3ccccc3)n2)CC1 [Example 37, (1α,5α,6β)-3-{6-[(S)-1-(4-Butoxycarbonyl-piperazine-1-carbonyl)-butylcarbamoyl]-2-phenyl-pyrimidin-4-yl}-3-aza-bicyclo[3.1.0]hexane-6-carboxylic acid]	6.91
CCCCOC(=O)N1CCN(C(=O)[C@H](CCCC)NC(=O)c2cc(N3C[C@@H]4[C@H](C3)[C@@H]4C(=O)O)nc(-c3ccccc3)n2)CC1 [Example 38, (1α,5α,6β)-3-{6-[(S)-1-(4-Butoxycarbonyl-piperazine-1-carbonyl)-pentylcarbamoyl]-2-phenyl-pyrimidin-4-yl}-3-aza-bicyclo[3.1.0]hexane-6-carboxylic acid]	6.87
CCCCOC(=O)N1CCN(C(=O)[C@H](CC(C)C)NC(=O)c2cc(N3C[C@@H]4[C@H](C3)[C@@H]4C(=O)O)nc(-c3ccccc3)n2)CC1 [Example 39, (1α,5α,6β)-3-{6-[(S)-1-(4-Butoxycarbonyl-piperazine-1-carbonyl)-3-methyl-butylcarbamoyl]-2-phenyl-pyrimidin-4-yl}-3-aza-bicyclo[3.1.0]hexane-6-carboxylic acid]	6.91
CCCCOC(=O)N1CCN(C(=O)[C@H](CC2CC2)NC(=O)c2cc(N3C[C@@H]4[C@H](C3)[C@@H]4C(=O)O)nc(-c3ccccc3)n2)CC1 [Example 40, (1α,5α,6β)-3-{6-[(S)-2-(4-Butoxycarbonyl-piperazin-1-yl)-1-cyclopropylmethyl-2-oxo-ethylcarbamoyl]-2-phenyl-pyrimidin-4-yl}-3-aza-bicyclo[3.1.0]hexane-6-carboxylic acid]	6.84
CCCCOC(=O)N1CCN(C(=O)[C@@H](NC(=O)c2cc(N3C[C@@H]4[C@H](C3)[C@@H]4C(=O)O)nc(-c3ccccc3)n2)C2CC2)CC1 [Example 41, (1α,5α,6β)-3-{6-[(S)-2-(4-Butoxycarbonyl-piperazin-1-yl)-1-cyclopropyl-2-oxo-ethylcarbamoyl]-2-phenyl-pyrimidin-4-yl}-3-aza-bicyclo[3.1.0]hexane-6-carboxylic acid]	7.66
CCCCOC(=O)N1CCN(C(=O)C(NC(=O)c2cc(N3CC4C(C3)C4C(=O)O)nc(-c3ccccc3)n2)C(C)O)CC1 [Example 42, (1α,5α,6β)-3-{6-[(1S,2R)-1-(4-Butoxycarbonyl-piperazine-1-carbonyl)-2-hydroxy-propylcarbamoyl]-2-phenyl-pyrimidin-4-yl}-3-aza-bicyclo[3.1.0]hexane-6-carboxylic acid]	7.30
CCCCOC(=O)N1CCN(C(=O)[C@@H](NC(=O)c2cc(N3C[C@@H]4[C@H](C3)[C@@H]4C(=O)O)nc(-c3ccccc3)n2)C(C)(C)C)CC1 [Example 43, (1α,5α,6β)-3-{6-[(S)-1-(4-Butoxycarbonyl-piperazine-1-carbonyl)-2,2-dimethyl-propylcarbamoyl]-2-phenyl-pyrimidin-4-yl}-3-aza-bicyclo[3.1.0]hexane-6-carboxylic acid]	6.48
CCCCOC(=O)N1CCN(C(=O)[C@@H](NC(=O)c2cc(N3C[C@@H]4[C@H](C3)[C@H]4C(=O)O)nc(-c3ccccc3)n2)C(C)(C)C)CC1 [Example 44, (1α,5α,6α)-3-{6-[(S)-1-(4-Butoxycarbonyl-piperazine-1-carbonyl)-2,2-dimethyl-propylcarbamoyl]-2-phenyl-pyrimidin-4-yl}-3-aza-bicyclo[3.1.0]hexane-6-carboxylic acid]	6.04
CCCCOC(=O)N1CCN(C(=O)[C@H](Cc2ccccc2)NC(=O)c2cc(N3C[C@@H]4[C@H](C3)[C@@H]4C(=O)O)nc(-c3ccccc3)n2)CC1 [Example 45, (1α,5α,6β)-3-{6-[(S)-1-Benzyl-2-(4-butoxycarbonyl-piperazin-1-yl)-2-oxo-ethylcarbamoyl]-2-phenyl-pyrimidin-4-yl}-3-aza-bicyclo[3.1.0]hexane-6-carboxylic acid]	6.59
